Reference: US12297184B2 (Tesaro, Inc., priority 2018, dated 2025)
≈ marks a conversion by molar mass, not a printed value.

Assays:
[1] = Hygroscopicity by gravimetric (GVS) or dynamic (DVS) vapour sorption; type: physicochemical; details: for % Mass increase: at 90% RH, 25° C., GVS (camphorates, camsylate), DVS (mandelate); for Hygroscopicity (in words): from % mass increase at 90% RH
Method: Typically, approximately 10-20 mg of sample was placed into a mesh vapour sorption balance pan and loaded into an IGASorp Moisture Sorption Analyser balance by Hiden Analytical. The sample was subjected to a ramping profile from 40-90% relative humidity (RH) at 10% increments, maintaining the sample at each step until a stable weight had been achieved (98% step completion, minimum step length 30 minutes, maximum step length 60 minutes) at 25° C. After completion of the sorption cycle, the sample was dried using the same procedure to 0% RH, and finally taken back to the starting point of 40% RH. Two cycles were performed. The weight change during the sorption/desorption cycles were plotted, allowing for the hygroscopic nature of the sample to be determined.
Typically, approximately 10 mg of sample was placed into a mesh vapor sorption balance pan and loaded into a DVS-1/DVS Intrinsic/DVS Advantage dynamic vapor sorption balance by Surface Measurement Systems. The sample was subjected to a ramping profile from 40-90% relative humidity (RH) at 10% increments, maintaining the sample at each step until a stable weight had been achieved (dm/dt 0.004%, minimum step length 30 min, maximum step length 500 min) at 25° C. After completion of the sorption cycle, the sample was dried using the same procedure to 0% RH and then a second sorption cycle back to 40% RH. Two cycles were performed. The weight change during the sorption/desorption cycles were plotted, allowing for the hygroscopic nature of the sample to be determined.
GVS was performed on the crystalline solids produced in Examples land 3. DVS was performed on the crystalline solids produced in Example 2. Table 6 below summarizes the % mass increase observed at 90% RH for the samples.

[2] = for Solubility Water / Solubility pH 1 / Solubility pH 4.5 / Solubility pH 6.8: 24 h
Method: (§1) In an initial procedure (performed in triplicate), the salts were added in small aliquots to deionised water or to buffer solutions (10 mL) until saturation was achieved (˜20 mg was initially added), and the resulting slurry was shaken at 37° C. for 24 h. The following buffers (50 mM in each case) were used: • pH 1 25 mL KCl solution (1.49 g dissolved in 100 mL water) and 42.5 mL HCl solution (1.66 mL of concentrated HCl (˜37%) made up to 100 mL with water) were added together and made up to 100 mL with water; • pH 4.5 anhydrous sodium acetate (1.07 g) was dissolved in water (about 150 mL) before adding 5.9 mL acetic acid solution (11.6 mL glacial acetic acid made up to 100 mL with water). The resulting solution was made up to 500 mL with water; and • pH 6.8 25 mL of KH2PO4 solution (2.72 g dissolved in about 80 mL water and made up to 100 mL with water) and 11.2 mL of NaOH solution (800 mg of sodium hydroxide was dissolved and diluted to 100 mL with water) were added together and made up to 100 mL with water.
(§2) Any solids which were isolated by filtration were assessed by XRPD to determine whether the form of the material had changed.
(§3) The solubility assessment of these samples was repeated using the following procedure (samples prepared in triplicate):
(§4) The appropriate salt (30 mg) was weighed into a vial and water or buffer solution (1 mL) was added. The samples were shaken at 37° C. for 24 h. After 1 h and after about 17 h, further salt was added to the mandelate samples (except those in pH 1 buffer solution) to give an approximate 50-60 mg of solids. […] The samples were analysed as described above.

PARP activity = details: read-out: inhibition of PARP activity EC50; whole cell assay; cited from earlier work
[3] = test system: cancer cells having mutant BRCA1 and BRCA2; details: read-out: inhibition of proliferation CC50; cited from earlier work
physchem = details: 37 °C, thermodynamic from solid
Method: as §1, §2, §3, §4

[4] = drug substance; cited from earlier work

| Compound | % Mass increase [1] | Solubility Water [2] | Solubility pH 1 [2] | Solubility pH 4.5 [2] | Solubility pH 6.8 [2] | Hygroscopicity (in words) [1] | further results |
| --- | --- | --- | --- | --- | --- | --- | --- |
| NC(=O)c1cccc2cn(-c3ccc(C4CCCNC4)cc3)nc12 [(+)-Camphorate, 2-{4-[(3S)-piperidin-3-yl]phenyl}-2H-indazole-7-carboxamide (niraparib) (1R,3S)-(+)-camphorate] | ~0.3% | 200 µg/mL (≈ 0.624 mM) | 21.4 mg/mL | 0.3 mg/mL | 1.2 mg/mL | – | – |
| NC(=O)c1cccc2cn(-c3ccc(C4CCCNC4)cc3)nc12 [(−)-Camphorate, 2-{4-[(3S)-piperidin-3-yl]phenyl}-2H-indazole-7-carboxamide (niraparib) (1S,3R)-(−)-camphorate] | ~0.2% | – | – | – | – | – | – |
| NC(=O)c1cccc2cn(-c3ccc(C4CCCNC4)cc3)nc12 [Camsylate, 2-{4-[(3S)-piperidin-3-yl]phenyl}-2H-indazole-7-carboxamide (niraparib) (1S)-(+)-camsylate] | ~1.3% | 5900 µg/mL (≈ 18.4 mM) | 11.5 mg/mL | 7.1 mg/mL | 1.7 mg/mL | slightly hygroscopic | – |
| NC(=O)c1cccc2cn(-c3ccc(C4CCCNC4)cc3)nc12 [Mandelate, 2-{4-[(3S)-piperidin-3-yl]phenyl}-2H-indazole-7-carboxamide (niraparib) (R)-(−)-mandelate] | ~0.07% | 45400 µg/mL (≈ 142 mM) | 163.1 mg/mL | 53.8 mg/mL | 7.8 mg/mL | not hygroscopic | – |
| NC(=O)c1cccc2cn(-c3ccc([C@@H]4CCCNC4)cc3)nc12 [Niraparib, 2-{4-[(3S)-piperidin-3-yl]phenyl}-2H-indazole-7-carboxamide] | – | – | – | – | – | – | EC50 (PARP activity): 4 nM; CC50 [3]: 10 to 100 nM |
| NC(=O)c1cccc2cn(-c3ccc([C@@H]4CCCNC4)cc3)nc12 [Tosylate, 2-{4-[(3S)-piperidin-3-yl]phenyl}-2H-indazole-7-carboxamide 4-methylbenzenesulfonate hydrate 1:1:1] | – | – | – | – | – | – | solubility at 24 h (physchem; pH 1, simulated gastric fluid, Solubility pH 1): 900 µg/mL; solubility at 24 h (physchem; pH 6.8, aqueous buffer, Solubility pH 6.8): 900 µg/mL; solubility at 24 h (physchem; water, Solubility Water): 500 µg/mL; Aqueous solubility (background statement) [4]: low aqueous solubility; Hygroscopicity (background statement) [4]: non-hygroscopic |
| camphorate | – | – | – | – | – | not hygroscopic | Solubility (in words, reading of Table 8) ([2]; comparison with tosylate salt, especially in low pH media): greater solubility than the tosylate salt |
